Measurements as given in ChEMBL document CHEMBL4507292 (2021).

Assays:
[1] = molecular target: Voltage-dependent N-type calcium channel subunit alpha-1B (Homo sapiens) (UniProt Q00975); assay: Inhibition of Calcium Channel N-Type at 10 µM in the Eurofins-Panlabs radioligand binding assay (Eurofins_assay_216000); conditions: Rattus norvegicus; Compound concentration 10.0 uM
Rattus norvegicus = organism: Rattus norvegicus; assay: Serotonin (5-Hydroxytryptamine) 5-HT1, Non-Selective Eurofins-Panlabs radioligand binding assay; type: protein assay; conditions: concentration not given here
[2] = molecular target: T1, Alpha-1D adrenergic receptor (Homo sapiens) (UniProt P25100); assay: Inhibition of Adrenergic alpha1D at 10 µM in the Eurofins-Panlabs radioligand binding assay (Eurofins_assay_203400); conditions: Compound concentration 10.0 uM
T1 sequence (whole entry): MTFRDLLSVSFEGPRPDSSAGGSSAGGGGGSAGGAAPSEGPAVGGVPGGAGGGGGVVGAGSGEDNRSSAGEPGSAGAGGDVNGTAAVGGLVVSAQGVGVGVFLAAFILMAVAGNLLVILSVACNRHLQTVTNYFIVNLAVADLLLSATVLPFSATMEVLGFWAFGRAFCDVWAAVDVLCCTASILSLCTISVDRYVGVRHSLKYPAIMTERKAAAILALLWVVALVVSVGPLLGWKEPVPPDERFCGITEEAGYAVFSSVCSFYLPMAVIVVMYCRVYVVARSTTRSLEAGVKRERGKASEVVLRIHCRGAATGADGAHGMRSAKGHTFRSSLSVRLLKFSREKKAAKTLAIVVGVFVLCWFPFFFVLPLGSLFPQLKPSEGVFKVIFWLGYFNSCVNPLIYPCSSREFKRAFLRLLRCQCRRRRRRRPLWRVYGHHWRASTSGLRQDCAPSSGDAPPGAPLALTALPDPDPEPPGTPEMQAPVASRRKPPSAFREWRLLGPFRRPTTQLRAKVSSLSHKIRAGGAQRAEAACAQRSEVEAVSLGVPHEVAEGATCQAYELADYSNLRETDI

[3] = molecular target: Nociceptin receptor (Homo sapiens) (UniProt P41146); assay: Orphanin ORL1 Eurofins-Panlabs radioligand binding assay; conditions: Compound concentration 10.0 uM
Sequence of Nociceptin receptor (Homo sapiens) (P41146 whole entry): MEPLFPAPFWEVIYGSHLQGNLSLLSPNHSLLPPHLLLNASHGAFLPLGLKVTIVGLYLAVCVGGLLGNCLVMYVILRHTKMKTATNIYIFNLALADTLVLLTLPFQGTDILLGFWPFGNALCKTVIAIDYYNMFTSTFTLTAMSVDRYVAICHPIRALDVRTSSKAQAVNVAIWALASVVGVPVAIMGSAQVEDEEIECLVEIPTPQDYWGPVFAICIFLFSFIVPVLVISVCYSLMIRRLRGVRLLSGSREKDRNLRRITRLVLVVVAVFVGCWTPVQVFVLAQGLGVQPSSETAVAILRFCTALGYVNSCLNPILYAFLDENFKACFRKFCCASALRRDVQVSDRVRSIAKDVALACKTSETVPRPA

Measured: inhibition

Sequence of Voltage-dependent N-type calcium channel subunit alpha-1B (Homo sapiens) (Q00975 whole entry, looked up): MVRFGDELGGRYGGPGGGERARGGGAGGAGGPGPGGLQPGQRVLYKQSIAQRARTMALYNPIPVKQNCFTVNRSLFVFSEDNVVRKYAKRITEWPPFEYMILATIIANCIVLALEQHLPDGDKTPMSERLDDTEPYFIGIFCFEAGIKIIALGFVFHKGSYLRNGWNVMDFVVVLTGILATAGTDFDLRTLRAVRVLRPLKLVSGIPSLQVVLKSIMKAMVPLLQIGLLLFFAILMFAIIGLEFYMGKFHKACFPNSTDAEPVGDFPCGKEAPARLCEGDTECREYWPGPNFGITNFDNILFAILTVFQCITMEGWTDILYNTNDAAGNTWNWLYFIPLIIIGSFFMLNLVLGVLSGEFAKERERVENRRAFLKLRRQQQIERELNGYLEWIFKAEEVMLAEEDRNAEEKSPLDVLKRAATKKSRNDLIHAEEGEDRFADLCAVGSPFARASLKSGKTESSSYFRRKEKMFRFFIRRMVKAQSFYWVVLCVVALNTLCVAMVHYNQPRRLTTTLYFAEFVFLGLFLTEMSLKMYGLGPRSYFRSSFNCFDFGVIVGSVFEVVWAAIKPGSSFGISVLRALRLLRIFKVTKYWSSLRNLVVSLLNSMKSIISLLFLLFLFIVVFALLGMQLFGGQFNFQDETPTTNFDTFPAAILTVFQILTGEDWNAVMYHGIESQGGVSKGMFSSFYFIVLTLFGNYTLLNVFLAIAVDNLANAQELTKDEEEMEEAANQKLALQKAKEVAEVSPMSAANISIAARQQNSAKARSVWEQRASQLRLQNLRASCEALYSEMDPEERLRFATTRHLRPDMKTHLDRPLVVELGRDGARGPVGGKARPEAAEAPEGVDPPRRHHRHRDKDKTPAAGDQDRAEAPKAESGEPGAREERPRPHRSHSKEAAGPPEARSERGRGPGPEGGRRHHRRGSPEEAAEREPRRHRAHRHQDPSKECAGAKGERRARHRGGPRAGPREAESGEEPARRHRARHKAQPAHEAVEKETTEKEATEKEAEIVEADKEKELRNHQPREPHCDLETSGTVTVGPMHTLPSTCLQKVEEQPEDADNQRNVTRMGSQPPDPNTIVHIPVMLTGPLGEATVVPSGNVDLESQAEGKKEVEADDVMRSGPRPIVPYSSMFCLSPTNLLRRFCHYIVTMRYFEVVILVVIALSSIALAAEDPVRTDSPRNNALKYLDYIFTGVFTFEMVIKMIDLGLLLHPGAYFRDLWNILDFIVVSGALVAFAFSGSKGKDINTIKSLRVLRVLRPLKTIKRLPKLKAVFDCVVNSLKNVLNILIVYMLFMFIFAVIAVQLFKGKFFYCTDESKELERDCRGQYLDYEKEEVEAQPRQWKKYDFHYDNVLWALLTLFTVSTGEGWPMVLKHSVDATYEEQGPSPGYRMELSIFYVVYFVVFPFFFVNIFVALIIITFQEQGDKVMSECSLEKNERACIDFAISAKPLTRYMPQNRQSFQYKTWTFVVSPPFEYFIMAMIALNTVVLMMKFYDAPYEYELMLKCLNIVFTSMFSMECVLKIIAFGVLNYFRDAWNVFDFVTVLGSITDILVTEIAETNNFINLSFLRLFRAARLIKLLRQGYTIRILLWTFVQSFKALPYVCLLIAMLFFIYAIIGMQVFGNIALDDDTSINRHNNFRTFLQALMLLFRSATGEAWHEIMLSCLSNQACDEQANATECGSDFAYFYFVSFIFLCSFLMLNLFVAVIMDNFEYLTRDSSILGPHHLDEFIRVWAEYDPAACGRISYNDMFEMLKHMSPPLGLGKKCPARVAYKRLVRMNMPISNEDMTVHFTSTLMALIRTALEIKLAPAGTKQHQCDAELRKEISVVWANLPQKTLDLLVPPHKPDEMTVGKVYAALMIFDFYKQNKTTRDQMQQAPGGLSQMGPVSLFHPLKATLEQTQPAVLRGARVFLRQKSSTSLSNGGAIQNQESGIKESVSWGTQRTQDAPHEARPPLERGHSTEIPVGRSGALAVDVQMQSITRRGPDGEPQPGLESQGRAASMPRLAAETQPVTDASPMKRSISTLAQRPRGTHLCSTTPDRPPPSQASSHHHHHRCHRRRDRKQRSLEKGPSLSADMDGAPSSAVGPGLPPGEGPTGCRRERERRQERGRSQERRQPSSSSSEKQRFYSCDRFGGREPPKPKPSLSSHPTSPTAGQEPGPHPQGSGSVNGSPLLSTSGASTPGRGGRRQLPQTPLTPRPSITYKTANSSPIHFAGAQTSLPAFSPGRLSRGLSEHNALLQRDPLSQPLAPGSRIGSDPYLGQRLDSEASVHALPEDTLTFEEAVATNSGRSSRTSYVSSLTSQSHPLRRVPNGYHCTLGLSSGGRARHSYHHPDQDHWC

O=C(O)c1cc(-c2ccc(C3CCNCC3)cc2)c2ccc(-c3ccc(C(F)(F)F)cc3)cc2c1 [PPTN]
inactive: [1] 11% | Rattus norvegicus 5% | [2] -5% | [3] 12%
